In assay [1] the target is T1, Human Dopamine D4 receptor (Homo sapiens, UniProt P21917).
T1 construct: expressed in transfected cells; host or cells: Sf9 cells
T1 sequence (P21917 1-419): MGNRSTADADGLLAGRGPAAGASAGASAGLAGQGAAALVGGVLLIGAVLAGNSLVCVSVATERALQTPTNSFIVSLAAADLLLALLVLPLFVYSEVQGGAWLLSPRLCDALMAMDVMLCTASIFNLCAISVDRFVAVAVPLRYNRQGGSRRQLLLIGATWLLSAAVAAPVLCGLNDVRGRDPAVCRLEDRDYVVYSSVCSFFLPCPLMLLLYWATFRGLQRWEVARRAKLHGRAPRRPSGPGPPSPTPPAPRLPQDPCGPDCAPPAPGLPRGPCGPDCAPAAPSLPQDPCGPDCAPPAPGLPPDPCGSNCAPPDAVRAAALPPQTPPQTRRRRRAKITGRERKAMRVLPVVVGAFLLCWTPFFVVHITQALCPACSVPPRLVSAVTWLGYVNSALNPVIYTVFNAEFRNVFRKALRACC
Kind of assay: Radioligand binding experiment for dopamine D4 receptor (hD4), [125I]Spiperone. The settings on record: membranes of D4 receptor-transfected Sf9 cells, read-out: pIC50 D4 (converted). As for the experimental part: The interaction of the compounds of Formula (I) with dopamine-receptors, h5HT-transporter and h5HT1A receptor was assessed in in vitro radioligand binding experiments. In general, a low concentration of a radioligand with a high binding affinity for a particular receptor or transporter is incubated with a sample of a tissue preparation enriched in a particular receptor or transporter or with a preparation of cells expressing cloned human receptors in a buffered medium. During the incubation, the radioligand binds to the receptor or transporter. When equilibrium of binding is reached, the receptor bound radioactivity is separated from the non-bound radioactivity, and the receptor- or transporter-bound activity is counted The interaction of the test compounds with the receptor is assessed in competition binding experiments. Various concentrations of the test compound are added to the incubation mixture containing the receptor- or transporter preparation and the radioligand. […]
Human Dopamine D4 receptor-transfected Sf9 cells were collected by scraping into ice-cold Tris-HCl buffer (50 mM, pH 7.4). […] Filters were allowed to dry before adding scintillation fluid and counting in a Topcount scintillation counter. % Specific bound and competition binding curves were calculated using S-Plus software (Insightful).

The target of the next assay is T2, Human 5HT1A receptor (Homo sapiens, UniProt P08908).
T2 construct: expressed in transfected cells; host or cells: L929 cells (stably transfected)
T2 sequence (P08908 1-422): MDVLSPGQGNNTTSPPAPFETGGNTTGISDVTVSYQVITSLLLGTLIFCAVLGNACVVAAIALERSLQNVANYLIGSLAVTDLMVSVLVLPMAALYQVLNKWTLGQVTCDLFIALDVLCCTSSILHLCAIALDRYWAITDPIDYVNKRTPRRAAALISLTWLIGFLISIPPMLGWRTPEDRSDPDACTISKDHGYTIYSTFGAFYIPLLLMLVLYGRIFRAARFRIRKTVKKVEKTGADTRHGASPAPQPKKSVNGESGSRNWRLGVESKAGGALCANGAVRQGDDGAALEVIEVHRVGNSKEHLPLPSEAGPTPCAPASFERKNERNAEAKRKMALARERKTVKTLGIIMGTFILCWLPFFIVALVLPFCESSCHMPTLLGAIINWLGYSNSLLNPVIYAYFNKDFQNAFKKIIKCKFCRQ
The assay can be described thus: Binding experiment for 5-HT1A receptor, [3H]8OHDPAT. Particulars: membranes of 5HT1A receptor-transfected L929 cells, read-out: pIC50 5HT1A (converted). As to the method:
The interaction of the compounds of Formula (I) with dopamine-receptors, h5HT-transporter and h5HT1A receptor was assessed in in vitro radioligand binding experiments. In general, a low concentration of a radioligand with a high binding affinity for a particular receptor or transporter is incubated with a sample of a tissue preparation enriched in a particular receptor or transporter or with a preparation of cells expressing cloned human receptors in a buffered medium. During the incubation, the radioligand binds to the receptor or transporter. When equilibrium of binding is reached, the receptor bound radioactivity is separated from the non-bound radioactivity, and the receptor- or transporter-bound activity is counted The interaction of the test compounds with the receptor is assessed in competition binding experiments. Various concentrations of the test compound are added to the incubation mixture containing the receptor- or transporter preparation and the radioligand. The test compound in proportion to its binding affinity and its concentration inhibits binding of the radioligand.
Human 5HT1A receptor-transfected L929 cells were collected by scraping into ice-cold Tris-HCl buffer (50 mM, pH 7.4). The suspension was centrifuged (23 500×g, 10 min, 4° C.) and pellets stored at −70° C. until required. They were then thawed and briefly homogenised using an Ultra-Turrax T25 homogeniser prior to dilution to an appropriate protein concentration optimised for specific and non-specific binding. [^3H]8OHDPAT (NEN, specific activity 127 Ci/mmol) was diluted in Tris-HCl assay buffer containing CaCl2 (50 mM and 4 mM, respectively; pH 7.7) at a concentration of 5 nmol/L. Prepared radioligand (50 μl) was then incubated (30 min, 37° C.) with membrane preparations from L929 cells stably-transfected with the h5HT1A gene construct (400 μl) and with 50 μl of either the 10% DMSO control, spiroxatrine (10^−6 mol/L final concentration), or compound of interest. Membrane-bound activity was detected by filtration through a Packard Filtermate harvester onto Unifaltemplates, washing with ice-cold Tris-HCI buffer (3×4 ml), followed by drying. Scintillation fluid was added and membranes were counted in a Topcount scintillation counter. % Specific bound and competition binding curves were calculated using S-Plus software (Insightful).

With `Fc1ccc2[nH]cc(C3=CCN(CC4Oc5cccnc5O4)CC3)c2c1` (centres unmarked) [Compound 7], the values for the IC50 (in assay [1]; on Human 5HT1A receptor) were 501 nM and 398 nM, respectively.

The record behind these values is patent publication US20070066608A1, “Novel indole derivatives with an improved antipsychotic activity” (priority 2003, published 2007).
